# Data published in article PMC2879362, “Design of Group IIA Secreted/Synovial Phospholipase A2 Inhibitors: An Oxadiazolone Derivative Suppresses Chondrocyte Prostaglandin E2 Secretion” (PLoS ONE, 2010).
# “Also recorded” adds a separate entry of the source.
# How the values were obtained:
# [1] = tested on: COX-1/COX-2 protein ratio; assay: COX-1/COX-2 protein ratio by scanning densitometry of western blots; assay type: cell-based, rabbit; conditions: C8 0.31-1.24 µM in DMEM, IL-1β 20 h
# Text: As expected, COX-1 protein was detectable but COX-2 and iNOS proteins were undetectable in untreated control conditions (Fig. 6A). […] Consequently, the protein ratio of COX-1 to COX-2 was not modified by C8 (Fig. 6B). […] Results from one representative experiment in five are shown. (B) Intensities of the COX-1 and COX-2 immunoreactive bands evaluated by semi-quantitative scanning densitometry. Data represent the COX-1/COX-2 protein ratio and are expressed as relative arbitrary units, where the IL-1β-treated group represents 1. Values are means ± SEM (n = 5 independent determinations). No significant differences were found between the groups. […] Cell lysates were centrifuged for 15 min at 14000 rpm at 4°C and supernatants were collected. Protein concentrations were determined by the Bradford method by use of the Protein Assay dye reagent (Bio-Rad). Protein extracts (20 µg) were size-separated by SDS-PAGE in a 10% (w/v) polyacrylamide gel and electroblotted to a nitrocellulose membrane. Equal protein loading and transfer was confirmed by staining the membrane with Ponceau Red [0.2% (w/v) in H2O:acetic acid 99∶1]. […] Immunocomplexes were detected by an enhanced chemiluminescence kit (Amersham Bioscience). […] Semi-quantitative scanning densitometry involved use of the ImageJ program (NIH, USA).
# [2] = biological target: T1, porcine group IB PLA2 (pGIBPLA2) (Sus scrofa, UniProt P00592); assay: In vitro fluorimetric PLA2 assay (β-py-C10-PG substrate); assay type: biochemical; conditions: 2 µM β-py-C10-PG, 6 ng/mL pancreatic PLA2
# T1 construct: purchased Sigma
# Method: (§1) The compounds C1-C8 were submitted to fluorimetric assay to determine their inhibitory potencies and selectivity towards human GIIAPLA2 (hGIIAPLA2) versus porcine group IB PLA2 (pGIBPLA2) (Table 2). GIBPLA2 is an enzyme of the same family as GIIAPLA2 (sPLA2) but is mainly involved in digestion of dietary phospholipids and is secreted by the pancreas. Lipophilicity parameters, log P, of these products are calculated by use of Rekker's fragmental data (Table 2). The molecules C1-C8 are specific inhibitors of hGIIAPLA2 because none inhibited pGIBPLA2 at the highest concentration tested (100 µM). Such selectivity implies that C1-C8 should not interfere with the digestion process.
# (§2) Fatty-acid free BSA and pancreatic PLA2 were from Sigma. hGIIAPLA2 was prepared as previously described. The fluorescent substrate for PLA2 assay, 1-hexadecanoyl-2-(10-pyrenedecanoyl)-sn-glycero-3-phosphoglycerol, ammonium salt (β-py-C10-PG) was from Molecular Probes (Eugene). PLA2 activity was evaluated as previously described with β-py-C10-PG used as a substrate (2 µM final concentration). In a total volume of 1 mL, the standard reaction medium contained 50 mM Tris-HCl (pH 7.5), 500 mM NaCl, 1 mM EGTA, 2 µM β-py-C10-PG, 0.1% fatty-acid free BSA and 6 ng/mL pancreatic PLA2 or 1 ng/mL hGIIAPLA2. The fluorescence (λex = 342 nm and λem = 398 nm) of the enzymatic reaction medium was recorded for 3 min with use of a spectrofluorimeter LS 50 (Perkin-Elmer) equipped with a Xenon lamp. The reaction was initiated by the addition of CaCl2 (10 mM, final concentration). The increase in fluorescence was continuously recorded for 1 min, and PLA2 activity was calculated as previously described. When used, the inhibitor was added to the reaction medium after introduction of BSA. The activity is expressed in micromoles of fluorescent β-py-C10-PG hydrolyzed per min. The standard error of the mean of three independent experiments was less than 10%, which allows for the determination of the IC50 values (concentration of inhibitors producing 50% inhibition) of each compound.
# [3] = biological target: T2, human GIIAPLA2 (hGIIAPLA2) (Homo sapiens, UniProt P14555); assay: as above; assay type: biochemical; conditions: 2 µM β-py-C10-PG, 1 ng/mL hGIIAPLA2
# T2 construct: hGIIAPLA2 was prepared as previously described [33]; made in house
# T2 sequence (P14555 21-144): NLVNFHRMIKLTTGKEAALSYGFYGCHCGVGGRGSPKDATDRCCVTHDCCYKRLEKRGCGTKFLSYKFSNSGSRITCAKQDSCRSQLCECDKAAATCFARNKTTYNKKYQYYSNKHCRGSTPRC
# Method: as §1, §2
# [4] = tested on: rabbit articular chondrocytes; assay: MTT cell viability of IL-1β-treated articular chondrocytes; assay type: cell-based; conditions: IL-1β 1 ng/mL 20 h
# Method: We assessed the viability of the chondrocytes by MTT assay to evaluate the cytotoxic effects of C8 on these cells. Chondrocytes were treated for 20 h with 1 ng/mL IL-1β alone or 1 h after the addition of C8 at 0.31 to 9.92 µM, which corresponded to 0.5- to 5-fold the IC50 of C8 on human GIIAPLA2 activity (Table 2). Three different culture medium compositions were used: DMEM alone, or supplemented with 0.1% BSA or 2% FCS. […] Thus, we evaluated the anti-inflammatory activity of C8 in culture conditions from 0.31 to 1.24 µM in DMEM alone and from 0.31 to 4.96 µM in DMEM supplemented with 0.1% BSA or 2% FCS.
# Articular chondrocytes were isolated from 5-week-old Fauve de Bourgogne female rabbits (CPA, Orleans, France) and cultured at the first passage in conditions avoiding cell dedifferentiation as previously described. Cells were cultured at 37°C in 12-well plates in Ham's F-12 medium containing 10% FCS, 20 IU/mL penicillin, and 20 µg/mL streptomycin (all from Invitrogen) until nearly confluent. Then medium was replaced with DMEM (Invitrogen) containing 20 IU/mL penicillin, and 20 µg/mL streptomycin and, if necessary, 0.1% fatty acid free BSA (Sigma) or 2% FCS. At this time the C8 compound dissolved in DMSO (Sigma) was added to the medium (the amount of DMSO was kept at 1‰ (v/v) in all the wells). 1 h after the addition of C8, IL-1β (PeproTech) was added to the medium. Consequently, chondrocytes were incubated for 20 h with IL-1β and for 21 h with C8.
# At 18 h after the addition of IL-1β, 3-[4,5-dimethylthiazol-2-yl]-2,5-diphenyl tetrazolium bromide (MTT; Sigma) was added to the cell culture medium at 0.5 mg/mL. Cells were incubated 2 more hours at 37°C. The medium was then removed, and DMSO was added to dissolve the formazan crystals. The absorbance of the resulting solution was spectrophotometrically measured at 570 and 690 nm (background). The value corresponding to absorbance570nm - absorbance690nm was directly proportional to the number and activity of the viable cells.
# T1 sequence (P00592 23-146): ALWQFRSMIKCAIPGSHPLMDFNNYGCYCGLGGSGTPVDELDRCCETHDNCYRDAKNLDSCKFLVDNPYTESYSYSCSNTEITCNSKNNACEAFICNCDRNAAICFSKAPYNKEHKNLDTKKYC
compound,measurement,setting,value
O=c1[nH]c(Cc2ccc(OCCCCCOc3cc4ccccc4c4ccccc34)cc2)no1 [C8],effect on protein ratio of COX-1 to COX-2,[1],not modified
same,IC50,[2],> 100000 nM
same,IC50,[3],620 ± 150 nM
same,cytotoxic effects (MTT),"[4]; DMEM alone, C8 at 0.31 to 2.48 µM",no cytotoxic effects
same,cytotoxic effects (MTT),"[4]; DMEM with 0.1% BSA, C8 at 0.31 to 9.92 µM",no cytotoxic effects; also recorded: did not decrease cell viability
same,cytotoxic effects (MTT),"[4]; DMEM with 2% FCS, C8 at 0.31 to 9.92 µM",no cytotoxic effects; also recorded: did not decrease cell viability
